A short description of this series: Accelerated stability test (50° C.) with pH stability test of sucralose sample solution. Format: physicochemical. The settings on record: for Days to pH Failure / Days to pH Failure (Final Product Moisture Content) / Days to pH Failure (Initial Moisture Content) / Ph Stability: 50° C.; for Days to pH Failure: WHIRLPAK polyethylene bags, failure = pH drop ≧1.0; for Days to pH Failure / Initial pH difference: Example 2, pH at crystallizer varied; for stability at intermediate moisture contents compared with final moisture levels: crystallized with no pH control, intermediate moisture 3 to 5% vs final 0.05, 0.11, 0.21%; for Initial pH difference: sample solution vs pH-adjusted water at time zero; for Days to pH Failure (Final Product Moisture Content): final dried product; for Days to pH Failure (Final Product Moisture Content) / Days to pH Failure (Initial Moisture Content): Example 3; for Days to pH Failure (Initial Moisture Content): partially dried product at intermediate (initial) moisture content. An excerpt: Label seven 6 oz. and seven 18 oz. WHIRLPAK® polyethylene bags with indelible marker for each batch being tested for stability. Accurately weigh 25 g±0.01 g of sucralose into each 6 oz. WHIRLPAK® polyethylene bag. Heat or impulse seal the 6 oz. bag to ensure air tightness. Cut off any excess polyethylene at the top of the bag above the seal. Place the 6 oz. sealed bag into the 18 oz. bag and heat or impulse seal the 18 oz. bag to ensure air tightness. Roll down the top of the 18 oz. bag above the seal and bend the metal ties to form hooks.
Place the prepared bags into an oven stabilized at 50° C.±0.5° C. by hanging them from racks by the bag hooks. The bags must be freely suspended and not touch anything. Record the time samples are placed into the oven.
The pH stability test is conducted on the sucralose at time zero (the day the samples are placed in the oven, before the sucralose is exposed to elevated temperature) and every 24 hours until the batch being tested fails the test.
Place approximately 100 ml of deionized water into a 150 ml beaker. Using 0.1 N hydrochloric acid and/or 0.1 N sodium hydroxide, adjust the pH of the water to be between 5.8 and 6.0. Record the pH reading.
Accurately weigh 5 g±0.001 g of the product to be tested and transfer it to a 50 ml volumetric flask. Dissolve and bring to the mark by adding pH-adjusted water. If the sample to be tested is one that has been exposed to heat, remove one bag of the batch being tested from the oven and allow it to cool to room temperature before opening and sampling.
Pour the solution into a 100 ml beaker containing a stir bar, and slowly stir the solution on a magnetic stirrer. Immerse the pH electrode in the sample, allow the pH reading to stabilize, and record the pH reading of the sample. If no pH drop is observed after all the bags have been tested, the experiment is void and the test must repeated with a larger number of bags.
Record (to one decimal place) the pH of both the pH-adjusted water used and the sample sucralose solution. Subtract the pH of the […]. Report the result as (−) for a pH drop and (+) for a pH gain, e.g.:
The sample fails the test if there is a pH drop of 1.0 pH unit or more. The pH stability of the batch is defined as the number of days until the pH drop between the sample solution and that of the pH adjusted water is ≧1.0.
Samples of sucralose were tested for stability using the above procedures, but using bags of different moisture permeability. All other experimental details were the same. The TYVEK®/polyethylene bags are permeable; the WHIRLPAK® bags are less permeable. The A8080 bag consists of aluminum foil laminated to low-density polyethylene, which makes it very impermeable to moisture.

Where [1] appears, read: package A8080 (aluminum foil laminated to low-density polyethylene), impermeable.
The mark [2] stands for this setting: package FF 91 TYVEK/Polyethylene, very permeable.

For `OC[C@H]1O[C@H](O[C@]2(CCl)O[C@H](CCl)[C@@H](O)[C@@H]2O)[C@H](O)[C@@H](O)[C@H]1Cl` [Sample 33, 4,1′,6′-trichloro-4,1′,6′-trideoxy-galactosucrose], the “Days to pH Failure” value is recorded as 4 Days, the “stability at intermediate moisture contents compared with final moisture levels” value is on record as “less stable at intermediate moisture contents (3 to 5%) than they were at their final moisture levels” and the “Initial pH difference” value is reported as −0.94.
For `OC[C@H]1O[C@H](O[C@]2(CCl)O[C@H](CCl)[C@@H](O)[C@@H]2O)[C@H](O)[C@@H](O)[C@H]1Cl` [Sample 34, 4,1′,6′-trichloro-4,1′,6′-trideoxy-galactosucrose], the “Days to pH Failure” value is on record as 3 Days, the “stability at intermediate moisture contents compared with final moisture levels” value was “less stable at intermediate moisture contents (3 to 5%) than they were at their final moisture levels” and the “Initial pH difference” value is −1.03.
In the case of `OC[C@H]1O[C@H](O[C@]2(CCl)O[C@H](CCl)[C@@H](O)[C@@H]2O)[C@H](O)[C@@H](O)[C@H]1Cl` [Sample 35, 4,1′,6′-trichloro-4,1′,6′-trideoxy-galactosucrose], the “Days to pH Failure” value was 5 Days, the “Days to pH Failure (Final Product Moisture Content)” value is 5 Days, the “Days to pH Failure (Initial Moisture Content)” value came out at 7 Days and the “Initial pH difference” value is on record as “+0.10”.
`OC[C@H]1O[C@H](O[C@]2(CCl)O[C@H](CCl)[C@@H](O)[C@@H]2O)[C@H](O)[C@@H](O)[C@H]1Cl` [Sample 36, 4,1′,6′-trichloro-4,1′,6′-trideoxy-galactosucrose]: the “Days to pH Failure” value was found to be 5 Days, the “Days to pH Failure (Final Product Moisture Content)” value was 5 Days, the “Days to pH Failure (Initial Moisture Content)” value came to 7 Days and the “Initial pH difference” value is reported as “+0.04”.
In the case of `OC[C@H]1O[C@H](O[C@]2(CCl)O[C@H](CCl)[C@@H](O)[C@@H]2O)[C@H](O)[C@@H](O)[C@H]1Cl` [Sample 37, 4,1′,6′-trichloro-4,1′,6′-trideoxy-galactosucrose], the “Days to pH Failure” value was 5 Days, the “Days to pH Failure (Final Product Moisture Content)” value is reported as 5 Days, the “Days to pH Failure (Initial Moisture Content)” value was found to be 21 Days and the “Initial pH difference” value is on record as −0.06.
For `OC[C@H]1O[C@H](O[C@]2(CCl)O[C@H](CCl)[C@@H](O)[C@@H]2O)[C@H](O)[C@@H](O)[C@H]1Cl` [Sample 38, 4,1′,6′-trichloro-4,1′,6′-trideoxy-galactosucrose], the “Days to pH Failure” value was found to be 6 Days, the “Days to pH Failure (Final Product Moisture Content)” value is listed as 6 Days, the “Days to pH Failure (Initial Moisture Content)” value was found to be 23 Days and the “Initial pH difference” value is listed as “+0.17”.
For the compound `OC[C@H]1O[C@H](O[C@]2(CCl)O[C@H](CCl)[C@@H](O)[C@@H]2O)[C@H](O)[C@@H](O)[C@H]1Cl` [Sample 39, 4,1′,6′-trichloro-4,1′,6′-trideoxy-galactosucrose], the “Days to pH Failure” value turned out to be 7 Days, the “Days to pH Failure (Final Product Moisture Content)” value stood at 7 Days, the “Days to pH Failure (Initial Moisture Content)” value is recorded as 13 Days and the “Initial pH difference” value is −0.02.
For `OC[C@H]1O[C@H](O[C@]2(CCl)O[C@H](CCl)[C@@H](O)[C@@H]2O)[C@H](O)[C@@H](O)[C@H]1Cl` [Sample 40, 4,1′,6′-trichloro-4,1′,6′-trideoxy-galactosucrose], the “Days to pH Failure” value is recorded as 7 Days, the “Days to pH Failure (Final Product Moisture Content)” value was 7 Days, the “Days to pH Failure (Initial Moisture Content)” value is recorded as 13 Days and the “Initial pH difference” value is “+0.40”.
As to `OC[C@H]1O[C@H](O[C@]2(CCl)O[C@H](CCl)[C@@H](O)[C@@H]2O)[C@H](O)[C@@H](O)[C@H]1Cl` [Sample 41, 4,1′,6′-trichloro-4,1′,6′-trideoxy-galactosucrose], the “Days to pH Failure” value was determined as 5 Days, the “Days to pH Failure (Final Product Moisture Content)” value was 5 Days, the “Days to pH Failure (Initial Moisture Content)” value was determined as 12 Days and the “Initial pH difference” value is recorded as “+0.40”.
For the compound `OC[C@H]1O[C@H](O[C@]2(CCl)O[C@H](CCl)[C@@H](O)[C@@H]2O)[C@H](O)[C@@H](O)[C@H]1Cl` [Sample 42, 4,1′,6′-trichloro-4,1′,6′-trideoxy-galactosucrose], the “Days to pH Failure” value is recorded as 5 Days, the “Days to pH Failure (Final Product Moisture Content)” value is 5 Days, the “Days to pH Failure (Initial Moisture Content)” value came to 9 Days and the “Initial pH difference” value is given as “+0.17”.
For the compound `OC[C@H]1O[C@H](O[C@]2(CCl)O[C@H](CCl)[C@@H](O)[C@@H]2O)[C@H](O)[C@@H](O)[C@H]1Cl` [Sample 43, 4,1′,6′-trichloro-4,1′,6′-trideoxy-galactosucrose], the “Days to pH Failure” value is given as 5 Days, the “Days to pH Failure (Final Product Moisture Content)” value was found to be 5 Days, the “Days to pH Failure (Initial Moisture Content)” value was found to be 8 Days and the “Initial pH difference” value is “+0.29”.
Take `OC[C@H]1O[C@H](O[C@]2(CCl)O[C@H](CCl)[C@@H](O)[C@@H]2O)[C@H](O)[C@@H](O)[C@H]1Cl` [Sample 44, 4,1′,6′-trichloro-4,1′,6′-trideoxy-galactosucrose]: the “Days to pH Failure” value was found to be 6 Days and the “Initial pH difference” value is on record as −0.18.
In the same order, the values of `OC[C@H]1O[C@H](O[C@]2(CCl)O[C@H](CCl)[C@@H](O)[C@@H]2O)[C@H](O)[C@@H](O)[C@H]1Cl` [Sample 45, 4,1′,6′-trichloro-4,1′,6′-trideoxy-galactosucrose] are 7 Days and “+0.17”.
As for `OC[C@H]1O[C@H](O[C@]2(CCl)O[C@H](CCl)[C@@H](O)[C@@H]2O)[C@H](O)[C@@H](O)[C@H]1Cl` [Sample 46, 4,1′,6′-trichloro-4,1′,6′-trideoxy-galactosucrose], the “Days to pH Failure” value is listed as 7 Days and the “Initial pH difference” value was “+0.43”.
For the compound `OC[C@H]1O[C@H](O[C@]2(CCl)O[C@H](CCl)[C@@H](O)[C@@H]2O)[C@H](O)[C@@H](O)[C@H]1Cl` [Sample 47, 4,1′,6′-trichloro-4,1′,6′-trideoxy-galactosucrose], the “Ph Stability” value under setting [1] came out at 33 days and the “Ph Stability” value under setting [2] is 4 days.
Consider `OC[C@H]1O[C@H](O[C@]2(CCl)O[C@H](CCl)[C@@H](O)[C@@H]2O)[C@H](O)[C@@H](O)[C@H]1Cl` [sucralose, 4,1′,6′-trichloro-4,1′,6′-trideoxy-galactosucrose], for which the “Ph Stability” value is, setting by setting: under setting [1], 33 days; under setting [2], 4 days.

(Values after patent publication US8017767B2, “Sucralose composition” (Tate & Lyle Public Limited Company, priority 2000, dated 2011).)
